# Measured values from patent publication US4803220A, “Pharmaceutical agents” (Imperial Chemical Industries PLC, priority 1984, dated 1989).
# Assays:
# guinea-pig = assay: bronchoconstriction test, Konzett-Rossler guinea-pig model, U46619 induced; format: in vivo; details: for reduction (inhibition) of bronchoconstriction: 0.5 mg./kg. p.o., 2.5 hours after administration, guinea-pig, U46619 i.v.
# Method: (c) a bronchoconstriction test involving measuring the inhibition by a test compound of the bronchoconstriction induced in the Konzett-Rossler guinea-pig model (as modified by Collier and James, Brit. J. Pharmacol., 1967, 30, 283-307) by intravenous administration of the TXA2 mimetic agent, U46619 at 1-1.9 μg/kg.
# dog platelets = assay: ex vivo U46619 induced blood platelet aggregation after oral dosing, dogs; format: in vivo; details: for inhibition of U46619 induced aggregation: 12 hours after oral administration to dogs at 2.5 mg./kg.
# Excerpt: (§1) (e) For example in the rabbit, arterial blood samples are taken by standard techniques into 3.8% w/v solution of trisodium citrate as anti-coagulant (1 part citrate: 9 parts blood) and then centrifuged first at 150 g, and then at 1000 g, to prepare platelet rich and platelet poor plasma fractions. These fractions are then used to calibrate an instrument for measuring light transmittance and thus the amount of platelet aggregation. The extent of platelet aggregation following addition of the TXA2 mimetic agent U46619 (final concentrations 0.2-2.2 μg./ml.) to the platelet rich plasma fraction is then determined, and the value of maximum aggregation in response to each concentration of U46619 is recorded. The test animals are then dosed orally with the test compound, and arterial blood samples are withdrawn at intervals after dosing. The platelet rich plasma fraction is prepared and U46619 added as above, and the extent of aggregation assessed by measuring the light transmittance of the sample. This value is compared with that obtained from the same animal before dosing, so that a measure of the extent of inhibition of U46619 induced blood platelet aggregation is obtained.
# A similar procedure is used in rats and guinea pigs except that blood samples are not taken prior to dosing but a control value is obtained from a group of undosed animals. When the aggregation of dog platelets is being studied, it is necessary to use a predetermined, threshold concentration of the platelet aggregant adenosine diphosphate (about 0.4-1.2×10^-6 M) together with the TXA2 mimetic agent, U46619.
# [1] = test system: Male rats (Alderley Park strain); assay: U46619 induced hypertensive effect in anaesthetised rats; format: in vivo, rat
# Method: (d) Male rats (Alderley Park strain) are anaesthetised with sodium pentobarbital and blood pressure is monitored at the carotid artery. The TXA2 mimetic agent known as U46619 is administered intravenously via the jugular vein and an ED50 (dose necessary to produce 50% of the maximum hypertensive effect) is established (n=3). The ED50 for U46619 is approximately 5 μg/kg. The test compound is then administered either intravenously via the jugular vein or orally via a cannula directly into the stomach and the animal challenged with an ED50 dose of U46619, five minutes after dosing with test compound and then successively every ten minutes until the hypertensive effect of U46619 is no longer blocked.
# [2] = test system: citrated, platelet rich, human plasma; assay: blood platelet aggregation test, U46619 induced aggregation of platelet rich plasma; format: cell-based; details: inhibition of aggregation of human platelet rich plasma induced by U46619 (50-250 ng/ml)
# Method: (b) a blood platelet aggregation test based on that described by Born (Nature, 1962, 194, 927-929) and involving measuring the inhibition by a test compound of aggregation of citrated, platelet rich, human plasma induced by a sub-maximal concentration (in the range 50-250 ng/ml.) of U46619; and […]
# blood platelets = assay: ex vivo U46619 induced blood platelet aggregation after oral dosing, rats; format: in vivo, rat; details: 6.5 hours after oral administration to rats at 10 mg./kg.
# Excerpt: as §1
# A similar procedure is used in rats and guinea pigs except that blood samples are not taken prior to dosing but a control value is obtained from a group of undosed animals. […]
compound,measurement,setting,value
"CC1(C)OC[C@@H](C/C=C\CCCC(=O)O)[C@@H](c2ccccc2O)O1 (relative stereo) [P, 5(Z)-7-(4-o-hydroxyphenyl-2,2-dimethyl-1,3-dioxan-cis-5-yl)heptenoic acid]",reduction (inhibition) of bronchoconstriction,guinea-pig,57%
same,inhibition of U46619 induced aggregation,dog platelets,15%
same,maximal inhibition of platelet aggregation,dog platelets; some 3 hours after an oral dose of 2.5 mg./kg. in dogs,93%
CCCCC[C@H](O)/C=C/[C@@H]1[C@@H](C/C=C\CCCC(=O)O)[C@H]2CO[C@@H]1C2 [Example U46619],ED50,"[1]; Rattus norvegicus, iv, U46619 intravenously via the jugular vein, anaesthetised rats, n=3, read-out: ED50 (dose necessary to produce 50% of the maximum hypertensive effect)",~5 µg/kg
"O=C(O)CCC/C=C\C[C@@H]1CO[C@H](C(F)(F)F)O[C@@H]1c1ccccc1 (relative stereo) [Q, 5(Z)-7-([2,4,5-cis]-4-phenyl-2-trifluoromethyl-1,3-dioxan-5-yl)heptenoic acid]",reduction (inhibition) of bronchoconstriction,guinea-pig,no significant inhibition
same,maximal inhibition of platelet aggregation,dog platelets; some 4 hours after an oral dose of 75 mg./kg. in dogs,23%
"O=C(O)CCC/C=C\C[C@@H]1CO[C@H](C(F)(F)F)O[C@@H]1c1ccccc1O (relative stereo) [formula I, 5(Z)-7-([2,4,5-cis]-4-o-hydroxyphenyl-2-trifluoromethyl-1,3-dioxan-5-yl)heptenoic acid]",inhibition of bronchoconstriction,"guinea-pig; 0.5 mg./kg. oral, 3 hours after dosing (as restated)",~95%
same,reduction (inhibition) of bronchoconstriction,guinea-pig,~95%
same,inhibition of U46619 induced aggregation,dog platelets,95%
same,inhibition of U46619 induced platelet aggregation (in words),dog platelets; for up to 12 hours following an oral dose of 2.5 mg./kg. in dogs,essentially complete inhibition
same,IC50,[2],7.78 ± 1.6 ng/mL
same,protection from blood pressure rise induced by U46619,"[1]; 3 hours after oral administration at 5 mg./kg., rats",essentially complete protection
same,inhibition of U46619 induced aggregation,blood platelets,90%
